Assay: ABA content in fifth instar larvae of colonies fed ABA syrup
Type: in vivo, honey bees
Conditions: 10 μM ABA in sucrose syrup (2:1); fifth instar larvae (L5), two months after starting treatment
Method: ABA was added to sucrose syrup (2:1, sucrose:water) to achieve a concentration of 10 μM ABA. Two groups of small colonies of honey bees were used to test if the compound was reaching the bee larvae. One group of colonies was exposed to the solution by way of adding the solution to feed the bees in the beehive, while the other was not. In order to corroborate that the ABA supplemented in the syrup actually reached the larvae, the ABA content was measured in fifth instar larvae (L5) two months after starting treatment.

## CC1=CC(=O)CC(C)(C)[C@@]1(O)/C=C/C(C)=C\C(=O)O [ABA, (2Z,4E)-5-[(1S)-1-hydroxy-2,6,6-trimethyl-4-oxocyclohex-2-en-1-yl]-3-methylpenta-2,4-dienoic acid]
  concentration of ABA in larvae compared to the control colony: 28 x

— patent US20200360318A1, “COMPOSITIONS AND METHODS FOR INCREASING THE POLLINATION PERFORMANCE OF BEES” (Beeflow Corporation, priority 2019, published 2020)
